Data taken from patent publication US12480846B2, “Multi-mode separation for target detection and cell growth monitoring” (THE REGENTS OF THE UNIVERSITY OF MICHIGAN, priority 2012, dated 2025).

System: E. coli O157:H7
Experiment: Solid-interface AMBR biosensor measurement of bacterial growth in 384 well plate
Type: cell-based
Details: antibiotic above the MIC in the surrounding media, 0.5 μg/ml gentamicin
Description: In previous AMBR applications at air-water and/or oil-water interfaces, the rotation period of the sensor slows down in response to bacterial growth; however, on solid interfaces there is an additional “dip” in the beginning of the data. Typical results for measuring bacterial growth, using the solid interface AMBR method are shown in FIG. 11, where the initial speeding up and then slowing down can be seen. […] This is true since the dip (or the slowing down) was not seen in wells with the same amount of bacteria, but that lacked nutrients (performed in PBS buffer), or contained antibiotics above the minimum inhibition concentrations.
Laboratory measurements have established that the speeding up happens with motile and non-motile, gram-negative and gram-positive cells, and with rod-like and coccal bacteria. […]
Anti-E. coli O157 functionalized, 2.8 μm diameter magnetic particles (20 μl, Invitrogen 710-03) were mixed with bacteria diluted to 10^4 CFU/ml (0.9 ml), and allowed to incubate (10 min at 37° C.) with end-over-end agitation. […] For colony counting, the samples were diluted appropriately, plated on a MH plate and the colonies were counted 18 hours later to obtain accurate bacterial concentrations and magnetic separation capture efficiencies. […]

Substance: gentamicin
- change in rotational period of AMBR biosensor (bacterial growth response): no change in rotational period
